Measured values as given in article PMC10788528 (The Journal of Biological Chemistry, 2023).
“Also recorded” adds a separate entry of the source.

Assays:
[1] = biological target: T1, Sm.TRPMMCLZ (Schistosoma mansoni, UniProt A0A5K4FCC0); test: Ca2+ reporter assay; format: cell-based; conditions: for Activator screen at Sm.TRPMMCLZ: 10 μM; for Antagonism of (S)-MCLZ (1 μM) action at Sm.TRPMMCLZ: 100 μM, preincubation 5 min
T1 sequence (A0A5K4FCC0 1-1380): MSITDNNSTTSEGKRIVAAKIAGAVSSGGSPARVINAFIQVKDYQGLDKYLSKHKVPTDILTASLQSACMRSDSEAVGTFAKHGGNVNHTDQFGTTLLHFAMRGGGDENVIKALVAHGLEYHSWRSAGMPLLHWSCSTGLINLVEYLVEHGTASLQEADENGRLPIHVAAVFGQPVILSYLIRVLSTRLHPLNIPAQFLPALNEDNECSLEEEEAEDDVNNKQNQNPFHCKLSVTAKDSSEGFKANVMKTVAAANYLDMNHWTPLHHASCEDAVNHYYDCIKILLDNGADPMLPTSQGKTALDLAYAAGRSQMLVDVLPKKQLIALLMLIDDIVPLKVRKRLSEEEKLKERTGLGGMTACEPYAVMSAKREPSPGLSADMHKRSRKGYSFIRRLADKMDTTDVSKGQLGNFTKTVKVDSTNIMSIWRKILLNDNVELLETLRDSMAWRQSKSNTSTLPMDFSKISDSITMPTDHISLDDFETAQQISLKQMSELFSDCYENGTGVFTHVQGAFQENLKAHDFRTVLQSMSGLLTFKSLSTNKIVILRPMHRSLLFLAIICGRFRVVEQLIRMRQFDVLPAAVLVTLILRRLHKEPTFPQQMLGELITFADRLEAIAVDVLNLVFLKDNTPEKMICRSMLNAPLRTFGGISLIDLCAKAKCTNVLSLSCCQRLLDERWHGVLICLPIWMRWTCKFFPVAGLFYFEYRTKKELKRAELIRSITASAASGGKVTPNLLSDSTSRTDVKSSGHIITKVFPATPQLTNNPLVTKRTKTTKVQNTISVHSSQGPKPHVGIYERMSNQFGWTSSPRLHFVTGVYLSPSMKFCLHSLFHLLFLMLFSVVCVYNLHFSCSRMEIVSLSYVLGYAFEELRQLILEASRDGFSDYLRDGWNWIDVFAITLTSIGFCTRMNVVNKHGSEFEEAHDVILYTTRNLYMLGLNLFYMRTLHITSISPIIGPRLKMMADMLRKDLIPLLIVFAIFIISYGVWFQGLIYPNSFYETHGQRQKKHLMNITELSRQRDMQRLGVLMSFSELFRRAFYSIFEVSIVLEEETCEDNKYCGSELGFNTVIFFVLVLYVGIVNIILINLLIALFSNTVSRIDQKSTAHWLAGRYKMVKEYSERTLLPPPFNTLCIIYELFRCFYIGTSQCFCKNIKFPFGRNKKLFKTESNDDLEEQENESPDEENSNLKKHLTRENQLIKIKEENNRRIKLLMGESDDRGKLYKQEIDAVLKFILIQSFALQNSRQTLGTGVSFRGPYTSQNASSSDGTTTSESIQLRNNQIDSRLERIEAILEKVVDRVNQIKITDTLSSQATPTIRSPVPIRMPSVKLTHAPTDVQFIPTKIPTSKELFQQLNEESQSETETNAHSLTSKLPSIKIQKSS

[2] = test system: S. mansoni male worms; test: Acute contraction of S. mansoni male worms by benzodiazepines; format: cell-based, Schistosoma mansoni; conditions: 3 μM, 20 min
[3] = biological target: Sm.TRPMPZQ (Schistosoma mansoni, UniProt A0A5K4F0X5); test: Ca2+ reporter assay; format: cell-based; conditions: Fig. S2 concentration-response
[4] = test system: adult S. mansoni worms; test: Adult schistosome movement; format: cell-based, Schistosoma mansoni

**Q.** Which “Inhibition of Ca2+ permeability through TRPMMCLZ by metal salt” value ([1]; (S)-MCLZ 1 μM, weakest in rank order La3+ > Ba2+ > Mg2+) does the source give for `[Cl-].[Cl-].[Mg+2]` [Mg^2+, MgCl2] here?
**A.** Its value is “partial inhibition”.

**Q.** How did the “Acute contraction / paralysis of S. mansoni male worms” value (from here on “Acute contraction / paralysis”) [2] turn out when `O=C1CN=C(c2ccccc2Cl)c2cc([N+](=O)[O-])ccc2N1` [Clonazepam] was run?
**A.** The value was “caused acute worm paralysis”.

**Q.** And the EC50 ([1]; Activation of Sm.TRPMMCLZ, EC50, HEK293 cells, cytoplasmic Ca2+ (Fluo-4))?
**A.** Its EC50 is 2100 ± 200 nM.

**Q.** Which results are given for `COCCOC(=O)C1=C(C)NC(C)=C(C(=O)OC(C)C)C1c1cccc([N+](=O)[O-])c1` (stereo not drawn) [nimodipine]?
**A.** Activation of Sm.TRPMPZQ by Cav channel ligands [3]: but not Sm.TRPMPZQ; Activator screen at Sm.TRPMMCLZ [1]: activated

**Q.** For `O=C(C1CCCCC1)N1CC(=O)N2CCc3ccccc3[C@@H]2C1` [(R)-PZQ, praziquantel], which “Effect on worm movement (paralysis)” value ([4]; 1 μM, adult S. mansoni worms, images 1 min after addition) is on record?
**A.** Its value is “rapid, spastic paralysis”.

**Q.** What about the IC50 ([4]; Schistosoma mansoni, read-out: Inhibition of motility, IC50) of the same molecule?
**A.** Its IC50 is 250 ± 70 nM.

**Q.** `CCN(CC)CCN1C(=O)CN=C(c2ccccc2F)c2cc(Cl)ccc21` [flurazepam] was tested. Which “Acute contraction / paralysis” value [2] did it give?
**A.** Its value is “did not evoke worm contraction”.

**Q.** How did the “Antagonism of (S)-MCLZ (1 μM) action at Sm.TRPMMCLZ” value [1] turn out when `COC(=O)C1=C(C)NC(C)=C(C(=O)OCCN(C)Cc2ccccc2)C1c1cccc([N+](=O)[O-])c1` (stereo not drawn) [nicardipine] was run?
**A.** The value was “weakly antagonized; also recorded: weakly attenuated”.

**Q.** For `COc1cc(CNC(=O)CCCC/C=C/C(C)C)ccc1O` [capsaicin], which “Activator screen at Sm.TRPMMCLZ” value [1] is on record?
**A.** The value was “inactive”.

**Q.** What does the source list for `COC(=O)c1c(C)[nH]c(C)c1C(=O)c1ccccc1Cc1ccccc1` [FPL-64176]?
**A.** Activation of Sm.TRPMPZQ by Cav channel ligands [3]: but not Sm.TRPMPZQ; Activator screen at Sm.TRPMMCLZ [1]: activated

**Q.** Which “Antagonism of (S)-MCLZ (1 μM) action at Sm.TRPMMCLZ” value [1] does the source give for `CCOC(=O)c1ncn2c1CN(C)C(=O)c1cc(F)ccc1-2` [flumazenil] here?
**A.** The value was “weakly antagonized”.

**Q.** `NCCCC(=O)O` [GABA] was tested. Which “Activator screen at Sm.TRPMMCLZ” value [1] did it give?
**A.** Its value is “inactive”.

**Q.** `CN1C(=O)CN=C(c2ccccc2F)c2cc([N+](=O)[O-])ccc21` [flunitrazepam] was tested. Which “Acute contraction / paralysis” value [2] did it give?
**A.** Its value is “did not evoke worm contraction”.
